System: panel of solid and haemotological tumor cell lines (e.g., Hs578t, SiHa, MDA-MB-231)
Experiment: MTS cell proliferation assay (cytotoxicity)
Assay type: cell-based
Conditions: 72-96 hours, 10 mM lactate medium or RPMI 1640 medium, cell line not stated
Description: The anti-proliferation effect of MCT inhibition was investigated across a panel of solid and haemotological tumor cell lines. Cells were routinely cultured in their appropriate growth medium. On day 1, between 10,000-25,000 cells/well (e.g., Hs578t: 15,000 cells/well, SiHa: 10,000 cells/well, and MDA-MB-231: 25,000 cells/well) were plated into 96-well plates. 100 μL. of phosphate buffered saline solution was added to the external wells to prevent media evaporation. Plates were incubated in growth medium overnight at 37° C. in the presence of 5% CO2. On day 2, dry weight compound stocks were dissolved to a concentration of 10 mM in 100% DMSO. Compounds were further diluted in the assay medium; 10 mM lactate medium (without glucose, pyruvate, and glutamine) or RPMI 1640 medium (without pyruvate and glutamine) to generate a final dose range of 1 nM to 10 μM. Growth medium in the 96-well plate was replaced with the assay medium (10 mM lactate medium or RPMI medium or appropriate medium), and compounds were added to each well in the plate at different concentrations via serial dilution or pre-prepared solutions in assay medium. Plates were then incubated at 37° C. in the presence of 5% CO2 for a further 72-96 hours. On day 2-5, assay media was changed to 100 uL of DMEM/F12 and 20 μL of CellTiter 96 AQ MTS reagent was added to each well and the plate was returned to the incubator for 1-2 hours. MTS is bioreduced by NADPH or NADH produced by dehydrogenase enzymes in metabolically active cells into a coloured formazan product that is soluble in tissue culture medium. The amount of coloured formazan product is directly proportional to the number of living cells in culture. The absorbance of the plates was read on a Spectramax M5e plate reader using […] measurement wavelength. Dose response curves were plotted and IC50 values were calculated using GraphPad Prism. The IC50 value is equivalent to the concentration of compound that causes 50% inhibition of growth calculated from the compound treated signal to the vehicle treated signal.
Cytotoxicity of selected compounds is listed in Table 1, where IC50: A=<1 uM; B=1-10 uM; C=>10 uM; and NT=Not Tested.

Structure (SMILES)	IC50 (Table 1 (Group 1))	IC50 (Table 2 (Group 2))
COc1ccc(CN(C)c2cc3oc(=O)c(C(=O)O)cc3s2)cc1 [Compound 1.021, 2-[(4-Methoxy-benzyl)-methyl-amino]-5-oxo-5H-thieno[3,2-b]pyran-6-carboxylic acid]	< 1 µM	
COc1ccccc1CN(C)c1cc2oc(=O)c(C(=O)O)cc2s1 [Compound 1.022, 2-[(2-Methoxy-benzyl)-methyl-amino]-5-oxo-5H-thieno[3,2-b]pyran-6-carboxylic acid]	< 1 µM	
CN(Cc1ccc(C(F)(F)F)cc1)c1cc2oc(=O)c(C(=O)O)cc2s1 [Compound 1.023, 2-[Methyl-(4-trifluoromethyl-benzyl)-amino]-5-oxo-5H-thieno[3,2-b]pyran-6-carboxylic acid]	< 1 µM	
COc1cccc(S(=O)(=O)N(C)c2cc3oc(=O)c(C(=O)O)cc3s2)c1 [Compound 1.024, 2-[(3-Methoxy-benzenesulfonyl)-methyl-amino]-5-oxo-5H-thieno[3,2-b]pyran-6-carboxylic acid]	< 1 µM	
COc1ccc(S(=O)(=O)N(C)c2cc3oc(=O)c(C(=O)O)cc3s2)cc1 [Compound 1.025, 2-[(4-Methoxy-benzenesulfonyl)-methyl-amino]-5-oxo-5H-thieno[3,2-b]pyran-6-carboxylic acid]	< 1 µM	
CN(c1cc2oc(=O)c(C(=O)O)cc2s1)S(=O)(=O)c1ccc(F)cc1 [Compound 1.026, 2-[(4-Fluoro-benzenesulfonyl)-methyl-amino]-5-oxo-5H-thieno[3,2-b]pyran-6-carboxylic acid]	< 1 µM	
CN(c1cc2oc(=O)c(C(=O)O)cc2s1)S(=O)(=O)c1ccc(C(F)(F)F)cc1 [Compound 1.027, 2-[Methyl-(4-trifluoromethyl-benzenesulfonyl)-amino]-5-oxo-5H-thieno[3,2-b]pyran-6-carboxylic acid]	< 1 µM	
CN(c1cc2oc(=O)c(C(=O)O)cc2s1)S(=O)(=O)c1cccc(C(F)(F)F)c1 [Compound 1.028, 2-[Methyl-(3-trifluoromethyl-benzenesulfonyl)-amino]-5-oxo-5H-thieno[3,2-b]pyran-6-carboxylic acid]	< 1 µM	
O=C(O)c1cc2sccc2oc1=O [Compound 1.029, 5-oxo-5H-thieno[3,2-b]pyran-6-carboxylic acid]	1 to 10 µM	
CN(C(=O)Nc1ccccc1Cl)c1cc2oc(=O)c(C(=O)O)cc2s1 [Compound 2.001, 2-(3-(2-chlorophenyl)-1-methylureido)-5-oxo-5H-thieno[3,2-b]pyran-6-carboxylic acid]		< 1 µM
COc1ccccc1NC(=O)N(C)c1cc2oc(=O)c(C(=O)O)cc2s1 [Compound 2.002, 2-(3-(2-methoxyphenyl)-1-methylureido)-5-oxo-5H-thieno[3,2-b]pyran-6-carboxylic acid]		< 1 µM
COc1cccc(NC(=O)N(C)c2cc3oc(=O)c(C(=O)O)cc3s2)c1 [Compound 2.003, 2-(3-(3-methoxyphenyl)-1-methylureido)-5-oxo-5H-thieno[3,2-b]pyran-6-carboxylic acid]		< 1 µM
CN(C(=O)Nc1ccc(Cl)cc1)c1cc2oc(=O)c(C(=O)O)cc2s1 [Compound 2.004, 2-(3-(4-chlorophenyl)-1-methylureido)-5-oxo-5H-thieno[3,2-b]pyran-6-carboxylic acid]		< 1 µM
CN(C(=O)Nc1ccc(F)cc1)c1cc2oc(=O)c(C(=O)O)cc2s1 [Compound 2.005, 2-(3-(4-fluorophenyl)-1-methylureido)-5-oxo-5H-thieno[3,2-b]pyran-6-carboxylic acid]		< 1 µM
COc1ccc(NC(=O)N(C)c2cc3oc(=O)c(C(=O)O)cc3s2)cc1OC [Compound 2.006, 2-(3-(3,4-dimethoxyphenyl)-1-methylureido)-5-oxo-5H-thieno[3,2-b]pyran-6-carboxylic acid]		< 1 µM
CN(C(=O)NC1CCCCC1)c1cc2oc(=O)c(C(=O)O)cc2s1 [Compound 2.007, 2-(3-cyclohexyl-1-methylureido)-5-oxo-5H-thieno[3,2-b]pyran-6-carboxylic acid]		< 1 µM
COc1ccc(NC(=O)N(C)c2cc3oc(=O)c(C(=O)O)cc3s2)cc1 [Compound 2.008, 2-(3-(4-methoxyphenyl)-1-methylureido)-5-oxo-5H-thieno[3,2-b]pyran-6-carboxylic acid]		< 1 µM

Structure (SMILES)	IC50 (Table 1 (Group 1))	IC50 (Table 2 (Group 2))
CCOc1cccc(NC(=O)N(C)c2cc3oc(=O)c(C(=O)O)cc3s2)c1 [Compound 2.009, 2-(3-(3-ethoxyphenyl)-1-methylureido)-5-oxo-5H-thieno[3,2-b]pyran-6-carboxylic acid]		< 1 µM
CCOc1ccccc1NC(=O)N(C)c1cc2oc(=O)c(C(=O)O)cc2s1 [Compound 2.010, 2-(3-(2-ethoxyphenyl)-1-methylureido)-5-oxo-5H-thieno[3,2-b]pyran-6-carboxylic acid]		< 1 µM
CN(C(=O)Nc1cccc(C(F)(F)F)c1)c1cc2oc(=O)c(C(=O)O)cc2s1 [Compound 2.011, 2-(1-methyl-3-(3-(trifluoromethyl)phenyl)ureido)-5-oxo-5H-thieno[3,2-b]pyran-6-carboxylic acid]		< 1 µM
CN(C(=O)Nc1ccc(C(F)(F)F)cc1)c1cc2oc(=O)c(C(=O)O)cc2s1 [Compound 2.012, 2-(1-methyl-3-(4-(trifluoromethyl)phenyl)ureido)-5-oxo-5H-thieno[3,2-b]pyran-6-carboxylic acid]		< 1 µM
COc1ccc(OC)c(NC(=O)N(C)c2cc3oc(=O)c(C(=O)O)cc3s2)c1 [Compound 2.013, 2-(3-(2,5-dimethoxyphenyl)-1-methylureido)-5-oxo-5H-thieno[3,2-b]pyran-6-carboxylic acid]		< 1 µM
COc1ccc(NC(=O)N(C)c2cc3oc(=O)c(C(=O)O)cc3s2)c(OC)c1 [Compound 2.014, 2-(3-(2,4-dimethoxyphenyl)-1-methylureido)-5-oxo-5H-thieno[3,2-b]pyran-6-carboxylic acid]		< 1 µM
COc1cc(F)ccc1NC(=O)N(C)c1cc2oc(=O)c(C(=O)O)cc2s1 [Compound 2.015, 2-(3-(4-fluoro-2-methoxyphenyl)-1-methylureido)-5-oxo-5H-thieno[3,2-b]pyran-6-carboxylic acid]		< 1 µM
COc1cc(NC(=O)N(C)c2cc3oc(=O)c(C(=O)O)cc3s2)ccc1F [Compound 2.016, 2-(3-(4-fluoro-3-methoxyphenyl)-1-methylureido)-5-oxo-5H-thieno[3,2-b]pyran-6-carboxylic acid]		< 1 µM
CCOc1cc(NC(=O)N(C)c2cc3oc(=O)c(C(=O)O)cc3s2)ccc1F [Compound 2.017, 2-(3-(3-ethoxy-4-fluorophenyl)-1-methylureido)-5-oxo-5H-thieno[3,2-b]pyran-6-carboxylic acid]		< 1 µM
CN(C(=O)Nc1ccc(OC(F)(F)F)cc1)c1cc2oc(=O)c(C(=O)O)cc2s1 [Compound 2.019, 2-(1-methyl-3-(4-(trifluoromethoxy)phenyl)ureido)-5-oxo-5H-thieno[3,2-b]pyran-6-carboxylic acid]		< 1 µM
CN(C(=O)N[C@H]1CC[C@H](C)CC1)c1cc2oc(=O)c(C(=O)O)cc2s1 [Compound 2.020, 2-(1-methyl-3-((1r,4r)-4-methylcyclohexyl)ureido)-5-oxo-5H-thieno[3,2-b]pyran-6-carboxylic acid]		< 1 µM
CCOc1ccc(NC(=O)N(C)c2cc3oc(=O)c(C(=O)O)cc3s2)cc1 [Compound 2.021, 2-(3-(4-ethoxyphenyl)-1-methylureido)-5-oxo-5H-thieno[3,2-b]pyran-6-carboxylic acid]		< 1 µM
COc1cc(NC(=O)N(C)c2cc3oc(=O)c(C(=O)O)cc3s2)cc(OC)c1 [Compound 2.022, 2-(3-(3,5-dimethoxyphenyl)-1-methylureido)-5-oxo-5H-thieno[3,2-b]pyran-6-carboxylic acid]		< 1 µM
CN(C(=O)Nc1ccc(O)cc1)c1cc2oc(=O)c(C(=O)O)cc2s1 [Compound 2.023, 2-(3-(4-hydroxyphenyl)-1-methylureido)-5-oxo-5H-thieno[3,2-b]pyran-6-carboxylic acid]		< 1 µM
CN(C(=O)Nc1ccccc1F)c1cc2oc(=O)c(C(=O)O)cc2s1 [Compound 2.024, 2-(3-(2-fluorophenyl)-1-methylureido)-5-oxo-5H-thieno[3,2-b]pyran-6-carboxylic acid]		< 1 µM
CN(C(=O)Nc1cccc(F)c1)c1cc2oc(=O)c(C(=O)O)cc2s1 [Compound 2.025, 2-(3-(3-fluorophenyl)-1-methylureido)-5-oxo-5H-thieno[3,2-b]pyran-6-carboxylic acid]		< 1 µM
COc1ccc(NC(=O)N(C)c2cc3oc(=O)c(C(=O)O)cc3s2)cc1C [Compound 2.026, 2-(3-(4-methoxy-3-methylphenyl)-1-methylureido)-5-oxo-5H-thieno[3,2-b]pyran-6-carboxylic acid]		< 1 µM
